In US7271158B2, “Treatment of rumen acidosis with α-amylase inhibitors” (Pfizer Inc., priority 2000, dated 2007):

What was measured:
[1] = system: rumen fluid fermentation (RUSITEC chronic acidosis model); assay: RUSITEC rumen simulation, chronic acidosis model: Example 8 and acarbose; format: cell-based, cow
Experimental: RUSITEC Result using Example 8 and Acarbose
Daily maintenance procedures as previously described for Acarbose.
Rumen fluid donor cow—Fed GH313Pellets plus barley straw.
Daily Feed—30 g GH313 pellets plus 2.5 g chopped barley straw.
Acarbose: 1 tablet added to each bag to give 100 mg/vessel/d
Example 8: Eight×57 mg pre-weighed samples stored in fridge in […]. On the day before the feed bags were to be placed in RUSITEC, a 57 mg sample was dissolved in 2.28 ml buffer (25 mg/ml). 0.21 ml of this solution was added to 1.9 ml buffer to give a 2.5 mg/ml solution. 1 ml of each solution was added to a prepared feed bag to give 25 and 2.5 mg/vessel/d. and dried overnight at room temperature.

[2] = system: chronic rumen acidosis induced in fistulated cattle; assay: In vivo testing in fistulated cattle (induced chronic rumen acidosis); set-up: species or system Hereford×Friesian steers; details: 4.0 g/trt through fistula
Excerpt: In Vivo Testing in Fistulated Cattle Objective: To determine the effect of the agent for testing, in this case acarbose, on chronic rumen acidosis induced in fistulated cattle. A rumen pH profile representative of chronic acidosis was induced by stepwise increase in the level of concentrate feeding of a specified diet and a reduction in the roughage offered. This was followed by treatment of each animal with acarbose, administered via a permanent rumen fistula, to assess its ability to normalise rumen pH. Experimental Animals: Six fistulated Hereford×Friesian steers, weighing 170-230 kgs (supplied by […] Calves Ltd. […], Ceredigion) Treatment: Glucobay® 100. Acarbose 100 mgs per tablet. Management: The cattle were fed GH651 cattle high cereal beef pellets (variable amount) with barley straw (variable amount) divided over two equal feeds, given at around 08.00 hr and 14.30 hr each day. Precise feeding times were recorded. Water was available ad-lib. Cattle were individually housed in pens (9 square meters per pen) in a building environmentally controlled to 16° C. [table] While chronic acidosis was being induced, manual pH measurements were taken approximately 5 and 8 hours post-morning feed. Rumen fluid samples were taken for VFA and lactate analysis. […] First Sense Recorder). […] Rumen fluid samples (10 ml) were taken twice daily for measurement of VFA levels, molar ratios and lactate levels. These were collected (by manually removing a sample of rumen content with a small stainless […], filtering and transferring to a 10 ml polypropylene vial) just before acarbose was added to the rumen at both dosing times. The pH probes were removed for cleaning and recalibration immediately pre-morning feed. Results: The daily pH curves were used to calculate the period that rumen pH was below pH 5.5, and therefore indicative of chronic acidosis.

Salm. enteritidis = assay: Minimum inhibitory concentrations in aerobes (agar dilution)
E. faecium = assay: as above
[3] = target: rumen fluid supernatant amylases; assay: Rumen bacterial amylase assay, protocol 1 (Sigma amylase kit 577); format: biochemical, rumen bacteria, Hereford×Friesian calves; details: rumen fluid amylase screen using Sigma kit 577
Excerpt: Rumen Bacterial Amylase Assay—Protocol 1
The enzymatic reactions involved in the assay are as follows:
5 ET-G7PNP→(α-amylase)→2 ET-G5+2 G2PNP+2 ET-G4+2 G3PNP+ET-G3+G4-PNP2 G2PNP+2 G3 PNP→(α-glucosidase)→4 PNP +10 glucose
α-Amylase hydrolyses 4,6-ethylidene-G7-PNP (ET-G7 PNP) to G2, G3 and G4 PNP fragments. α-Glucosidase (α-1,4-glucan glucohydrolase EC 3.2.1.3) hydrolyses G2PNP and G3PNP to yield p-nitrophenol and glucose. Five moles of substrate (ET-G7PNP) is hydrolysed to yield 4 moles of p-nitrophenol p-Nitrophenol absorbs light as 405 nm, and following a two minute lag period the rate of increase in absorbance at 405 nm is directly proportional to α-amylase activity in the well.
Rumen fluid was collected from 4-month-old Hereford×Friesian calves (125–135 kg, supplied by Cwmnant Calves Ltd. Cwmnant. Tregaron. Ceredigion) fed on diet GH 313. The rumen fluid was collected from slaughtered calves into pre-warmed vacuum flasks, as soon as possible after euthanasia. It was then filtered through a double layer of absorbent gauze (Absorbent gauze BP, GAUZ 4 from Robert Bailey plc, Stockport) to remove hay and feed particles. The liquid was centrifuged at a relative centrifugal force of 23,300 for 60 minutes, and the supernatant decanted, avoiding contamination from the loose top layer of the pellet by careful pouring. The supernatant was then aliquoted into 50 ml plastic tubes and frozen at […]. When required for use in an assay the rumen fluid supernatant was thawed by standing the tubes in cold water. Test compounds or controls were dispensed into the 96-well assay plate at 4 μl/well. 100 μl per well of Sigma amylase reagent 577 (made up to half the volume described in the instructions (i.e. 10 ml for a 577-20 vial)) was then added to each well, followed by 100 μl per well of rumen fluid supernatant. A T=0 reading at 405 nm was taken at this stage using an Anthos plate reader. The plate was then incubated at room temperature or 37° C. until an optical density window of approximately 1.000U was seen (typically one hour at 37° C. or three hours at room temperature). A second reading was taken at 405 nm, and the first reading subtracted from it. Active compounds cause a reduction in the optical density readings when compared to the control without the agent being tested.

E. coli = assay: Minimum inhibitory concentrations in aerobes (agar dilution); format: cell-based; details: Escherichia coli

CC1OC(OC2C(CO)OC(OC3C(CO)OC(O)C(O)C3O)C(O)C2O)C(O)C(O)C1NC1C=C(CO)C(O)C(O)C1O (stereo not drawn) [Acarbose, acarbose]
> 128 µg/mL: MIC (Salm. enteritidis; Salmonella enterica, ENTERITIDIS) | MIC (E. faecium; Enterococcus faecium) | MIC (E. coli; ATCC10418, E. coli ATCC 10418) | MIC (E. coli; E. coli E517)
fell: VFA concentration in rumen fluid ([2]; 14:00 samples, during the treatment period)
little difference: total VFA concentrations in rumen fluid ([2]; 13:00 samples, treatment vs control phase)
>128 µg/mL: MIC (Salm. enteritidis; Salm. enteritidis B1218) | MIC (Salm. enteritidis; Salm. enteritidis B1227) | MIC (Salm. enteritidis; Salm. enteritidis B1231) | MIC (Salm. enteritidis; Salm. enteritidis B1232) | MIC (Salm. enteritidis; Salm. enteritidis B1233) | MIC (Salm. enteritidis; Salm. enteritidis B1235) | MIC (Salm. enteritidis; Salm. enteritidis B1240) | MIC (E. faecium; E. faecium 1.1.6) | MIC (E. faecium; E. faecium 1.2.4) | MIC (E. faecium; E. faecium 1.2.6) | MIC (E. faecium; E. faecium 3.1) | MIC (E. faecium; E. faecium 4.5) | MIC (E. faecium; E. faecium 5.4) | MIC (E. faecium; E. faecium 10.1) | MIC (E. faecium; E. faecium 28.6.7) | MIC (E. faecium; E. faecium 28.7.7)
0.7 units: increase in mean daily pH ([1]; 0.2 mM)
113%: proportional increase in butyrate production ([1]; 100 mg per vessel per day, treatment period vs control period (no treatment: 1%))
−15%: change in total VFA production ([1]; 100 mg per vessel per day, vs preceding control period (no treatment: −11%))
lower: percentage of propionate in rumen fluid ([2]; all sampling times, during the treatment period)
2.03 µM: IC50 [3]
